From patent US20100279976A1, “USE OF ARTEMISININ AND ITS DERIVATIVES IN CANCER THERAPY” (SHANGHAI INSTITUTES FOR BIOLOGICAL SCIENCES, CAS, priority 2009, published 2010)
Where two headings read alike, the source gives them in different places.

Columns and labels:
HepG2 cells [1] = test: Western blot of apoptosis-related proteins; type: cell-based, human; conditions: HepG2, 48 h
Protocol: Whole-cell lysates may be generated with radioimmunoprecipitation assay lysis buffer, and after centrifugation, the supernatant fraction may be collected for immunoblotting. Proteins may be resolved by SDS-PAGE and transferred onto a nitrocellulose membrane. After blocking with 5% nonfat milk in blocking buffer [20 mmol/L TBS (pH 7.5) containing 0.1% Tween 20], the membrane may be incubated with the desired primary antibody for 2 h at room temperature and then incubated with appropriate peroxidase conjugated secondary antibody. The immunoreactive bands may be visualized using the ECL Plus Western Blotting Detection System. The level of ([…] for each sample may be used as loading control. Tumor tissues may be collected at the termination of the experiment and homogenized using a homogenizer in ice-cold lysis buffer. Supernatants may be collected and used to examine the expression of different proteins by Western blot analysis.

HepG2 cells [2] = test: Annexin V-FITC apoptosis assay, HepG2; type: cell-based, human
Protocol: (§1) ART- and DHA-induced apoptosis alone or in combination with gemcitabine in HepG2 and Hep3B cells or in combination with carboplatin in ovarian cancer cells may be determined by flow cytometry using the Annexin V-FITC Apoptosis Detection kit following the manufacturer's instructions. Briefly, 2×10^5 cells may be treated with ART and DHA (0, 1, 10, 25, and 50 mol/L) or 10 μg/L gemcitabine for 48 h. The cells may then be harvested, washed in PBS, and incubated with Annexin V and propidium iodide for staining in binding buffer at room temperature for 10 min in the dark. The stained cells may be analyzed using the FACSAria instrument.

ovarian cancer cells = test: MTT cell viability assay, ovarian cancer cells (line not specified); type: cell-based; conditions: Homo sapiens, 48 hrs, read-out: inhibition of viability
Protocol: The effects of ART derivatives on the viability of the aforementioned cells may be determined using the MTT assay. Briefly, 2,000 cells per well were plated in triplicate in 96-well plates. After a 24-h incubation, the cells may be treated with varying concentrations of ART derivatives (0, 1, 5, 10, 25, 50, and 100 μmol/L) for 48 h. The MTT assay may be performed according to the manufacture's instruction and the resultant formazan crystals may be dissolved in DMSO (100 μL). The absorbance may be then recorded at 540 nm. The effects of ART derivatives on cell viability may be assessed by comparing the percent cell viability of the treated cells with the vehicle (DMSO)-treated control cells, which may be arbitrarily assigned at 100% viability. The experiment may be repeated thrice under the same conditions.

A2780 cells = test: Annexin V-FITC apoptosis assay, A2780; type: cell-based, human; conditions: A2780, 50 μM, 24 hrs
Protocol: as §1, with “Briefly, 2×10^5 cells may be treated with ART and DHA (0, 1, 10, 25, and 50 mol/L) or 10 μg/L gemcitabine for 48 h.” left out

A2780 xenograft tumors = type: in vivo; conditions: for tumor growth inhibition: A2780 xenograft, 5 days/week
Protocol: Four to six week old female athymic nude mice (BALB/c, nu/nu) may be purchased from Shanghai Experimental Animal Center (Shanghai, China). Animal studies are approved by the Institute for Nutritional Sciences. The tumor xenograft model may be established as follows. […] Aliquots of cells (˜5×10^6 cells/0.2 ml) may be injected subcutaneously into the left inguinal area of the mice. The tumor growth and body weight of the mice may be monitored every other day. Tumor mass may be determined. Mice bearing palpable tumors (˜70 mg) may be randomly divided into treatment and control groups n=5 mice/group). CBP may be dissolved in saline, and DHA may be dissolved in cremophor EL:ethanol:saline (5:5:90, v/v/v). DHA may be administered via i.p. injection at doses of 10 and 25 mg/kg/5 days/week for 3 weeks) alone or combined with CBP (at a single dose of 120 mg/kg, once on day 0). The control group receives saline only. Mice may be killed on day 18. Tumors may be carefully excised, trimmed of extraneous fat or connective tissue, and homogenized in RIPA buffer (100 mg tumor tissue/1 ml RIPA) and prepared for immunoblotting analysis as described above.

| SMILES | MDM2 level (HepG2 cells [1]) | cleavage of caspase-3 and PARP (HepG2 cells [1]) | level of Bax (HepG2 cells [1]) | level of Bcl-2 protein (HepG2 cells [1]) | p53 level (HepG2 cells [1]) | apoptotic cells (HepG2 cells [2]; HepG2, 1 μmol/L, 48 h (0 μmol/L: 7%)) [%] | apoptotic cells (HepG2 cells [2]; HepG2, 10 μmol/L, 48 h) [%] | apoptotic cells (HepG2 cells [2]; HepG2, 25 μmol/L, 48 h) [%] | apoptotic cells (HepG2 cells [2]; HepG2, 50 μmol/L, 48 h) [%] | cytotoxicity at 1 µM (ovarian cancer cells; 1 μM) [%] | cytotoxicity at 500 µM (ovarian cancer cells; 500 μM) [%] | increase in apoptosis versus control (A2780 cells) [fold] | tumor growth inhibition (A2780 xenograft tumors; DHA 10 mg/kg i.p., vs saline control) [%] | tumor growth inhibition (A2780 xenograft tumors; DHA 25 mg/kg i.p.) [%] | host toxicity based on observation of body weight (A2780 xenograft tumors; mice bearing A2780 or OVCAR-3 xenografts) |
| --- | --- | --- | --- | --- | --- | --- | --- | --- | --- | --- | --- | --- | --- | --- | --- |
| C[C@@H]1CC[C@H]2[C@@H](C)C(=O)O[C@@H]3O[C@@]4(C)CC[C@@H]1[C@]32OO4 [ART, artemisinin] | decrease | dose-dependent increase | concomitant increase | dose-dependent reduction | dose-dependent increase | 9 | 14.95 | 15.45 | 16.45 |  |  |  |  |  |  |
| C[C@H]1[C@@H](O)O[C@@H]2O[C@@]3(C)CC[C@H]4[C@H](C)CC[C@@H]1[C@@]24OO3 [DHA, dihydroartemisinin] |  |  |  |  |  |  |  |  |  | 24 | 95 | 17 | 24 | 41 | No other host toxicities are observed |
